The results in this text go back to the METLIN SMRT retention time set (Domingo-Almenara et al. 2019).

This data set is described as follows: gradient 5% acetonitrile 3 min, to 50% in 2 min, to 85% in 15 min, held 3 min, 100 µL/min. Conditions: column: Zorbax Extend-C18 2.1 x 50 mm; eluents: water / acetonitrile, 0.1% formic acid. The method in brief:
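Over 3 months, pure standards in mixtures of ~100 molecules were run by HPLC coupled to a quadrupole time-of-flight mass spectrometer in positive and negative ionization mode. The column was a Zorbax Extend-C18 (2.1 × 50 mm, 1.8 μm) at 100 μL/min, eluted with water and acetonitrile each holding 0.1% formic acid, with 40 μL dead and 900 μL dwell volumes. Retention time was determined from adduct peaks chosen by software and checked manually.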
Compound `COCCCNC(=O)c1csc(-c2cnccn2)n1` showed an RP-LC retention time of 625 s.

In turn, `O=CN1CC/C(=C/c2ccc3c(c2)OCO3)C1=O` came in with an RP-LC retention time of 784 s.

In the case of `CN(C)S(=O)(=O)c1ccc2c(c1)N(CC(=O)NCCN1CCCC1)C(=O)C1CCCCN21` (stereo not given), the RP-LC retention time was 627 s.

The compound `O=C(CN1CCC(c2nc(-c3ccc(F)cc3)no2)CC1)NCc1ccc2c(c1)OCO2` registered an RP-LC retention time of 720 s.

Turning to `CCOc1ccc(NS(=O)(=O)c2cc(-c3[nH]ncc3C(=O)N(C)C)oc2C)cc1`, the RP-LC retention time came to 686 s.

Regarding `CCN(CC)CCNC(=O)CCc1cc2cc(C)ccc2[nH]c1=O`, the RP-LC retention time stood at 587 s.

On to `CN(C)c1ccc(-c2noc(-c3nc(-c4ccccc4F)no3)n2)cc1`, for which the RP-LC retention time came out at 1250 s.

Consider `COc1ccc2c(CCNC(=O)c3cccs3)c[nH]c2c1`, for which the RP-LC retention time was 764 s.

In turn, `CCCc1nnsc1C(=O)Nc1ccc2c(c1)CN(C(=O)c1ccco1)CC2` yielded an RP-LC retention time of 786 s.

As to `O=C(CSc1cc(-n2cccn2)ncn1)Nc1cc(Cl)ccc1Cl`, the RP-LC retention time is 1090 s.

Consider `Cc1c(-c2noc(C(=O)NCCN3CCC(C)CC3)n2)oc2ccccc12`, for which the RP-LC retention time was 706 s.

`CCc1noc(-c2cc(=O)n(CC(=O)NCc3ccccc3OC)c3ccccc23)n1`: the RP-LC retention time was determined as 900 s.

For the compound `O=C(NCc1ccc(Cl)cc1)c1nc(-c2ccncc2)cs1`, the RP-LC retention time is 687 s.

In turn, `O=C(NC1CCCCCC1)C1CCCN(c2nc3ccccc3n(Cc3ccccc3)c2=O)C1` (stereo not given) gave an RP-LC retention time of 1290 s.

`Cn1nc(C(=O)N2CCOCC2)c2c1CN(C(=O)Cc1ccsc1)C2`: the RP-LC retention time came to 640 s.

`O=C(CSc1nnc(-c2ccccc2F)o1)Nc1nccs1` displayed an RP-LC retention time of 691 s.

`COc1ccc(NC(=O)Cn2nc3n(c2=O)CCCCC3)c(OC)c1` yielded an RP-LC retention time of 678 s.

In turn, `O=C(NCc1ccco1)C1CCN(S(=O)(=O)c2cc(-c3noc(C4CCC4)n3)cs2)CC1` displayed an RP-LC retention time of 917 s.

In the case of `COCCNC(=O)c1nc(-c2ccnc(N3CCCC3)c2)no1`, the RP-LC retention time came out at 585 s.

Regarding `CCn1cc(S(=O)(=O)N2CC(N(Cc3cccnc3)CC(C)C)C2)cn1`, the RP-LC retention time came to 592 s.

Turning to `CCC(=O)N1c2ccc(S(=O)(=O)N3CCCCC3)cc2CC1C(=O)NCc1ccc(Cl)cc1` (stereo not given), the RP-LC retention time was determined as 924 s.

Consider `CCNC(=O)N1CCN(c2ccc(-c3noc(C4CC(=O)N(c5ccc(C)c(C)c5)C4)n3)cc2)CC1` (stereo not given), for which the RP-LC retention time is 885 s.

`CC(C)N(CCC(=O)c1ccc2ccccc2c1)Cc1ccccc1` returned an RP-LC retention time of 859 s.

On to `Cc1ccc(Nc2nc(C)cc3nn(CC(=O)NC4CCCC4)c(=O)n23)cc1`, for which the RP-LC retention time came out at 640 s.

Compound `CSc1ccc(CNC(=O)C2CCCN(C(=O)c3[nH]c(C)cc3C)C2)cc1` (stereo not given) yielded an RP-LC retention time of 701 s.

Compound `CCn1cc(-c2ccc(Cl)cc2)cc1C(=O)NCCCN(C)C` had an RP-LC retention time of 694 s.

Compound `O=C(c1ccsc1)N1CCN(c2nnc3ccc(Cl)cn23)CC1` registered an RP-LC retention time of 615 s.

Regarding `O=C(NCC1CCCO1)c1cc(=O)n(Cc2ccc(Cl)cc2)c2ccccc12` (stereo not given), the RP-LC retention time worked out at 815 s.

As for `COc1ccc(NC(=O)CN2C(=O)c3ccccc3Sc3ncccc32)cc1`, the RP-LC retention time is 758 s.

`Cc1oc(C2CCN(C(=O)Nc3ccc(F)cc3F)CC2)nc1C(=O)N1CCCC1` returned an RP-LC retention time of 744 s.

In the case of `Cc1ccc(S(=O)(=O)N2CCCCC2CCNC(=O)c2cccn(C)c2=O)cc1` (stereo not given), the RP-LC retention time stood at 760 s.

Take `O=C(c1ccncc1)N1CCC(c2noc(-c3cnccn3)n2)C1` (stereo not given): the RP-LC retention time is 584 s.

In turn, `CC(C)C(=O)NC(c1ccc(F)cc1)c1nnc(-c2ccccc2)o1` (stereo not given) displayed an RP-LC retention time of 856 s.

In turn, `Cc1cccc(NC(=O)CN2CCC(COCc3ccccc3)CC2)c1C` displayed an RP-LC retention time of 610 s.

The compound `CCC(C(=O)N1CCC(c2cc3n(n2)CCCNC3=O)CC1)c1ccccc1` (stereo not given) gave an RP-LC retention time of 694 s.

Compound `Fc1ccccc1-c1nc(-c2cn(-c3ccccc3)nn2)no1` registered an RP-LC retention time of 1230 s.

Consider `CC(C)CN1CCn2cc(S(=O)(=O)N3CCN(c4ccccc4)CC3)cc2C1=O`, for which the RP-LC retention time was found to be 921 s.

Regarding `Cc1cccc(NS(=O)(=O)c2c[nH]c3ncccc23)c1`, the RP-LC retention time was determined as 726 s.

`O=C(NCCSC12CC3CC(CC(C3)C1)C2)c1ccc(CN2C(=O)CCn3nccc32)cc1`: the RP-LC retention time turned out to be 645 s.

The compound `CCOc1ccccc1NC(=O)N1CCN(c2cc(C)nc(N3CCCC3)n2)CC1` came in with an RP-LC retention time of 692 s.

The compound `CC(C)CN1CCN(C(=O)c2cn(-c3ccc(-c4nc(C(C)(C)C)no4)cn3)cn2)CC1` had an RP-LC retention time of 699 s.

For the compound `C[C@H]1CN(C(=O)Nc2cccc(Cl)c2)C[C@@H]1c1nc(-c2cccnc2)no1`, the RP-LC retention time was found to be 849 s.

`CCN1C(=O)NC(c2ccccc2C(F)(F)F)C2=C1CN(CCC(=O)NCC(C)C)C2=O` (stereo not given) gave an RP-LC retention time of 661 s.

Regarding `COc1ccc(-c2nc(-c3nnn(Cc4ccccc4)c3C)no2)cc1OC`, the RP-LC retention time worked out at 959 s.

Compound `Cc1ccc(C(O)CN2CCN(c3ccccc3C)CC2)cc1` (stereo not given) gave an RP-LC retention time of 718 s.

In turn, `Cc1nn(C)cc1CN1CCCCC1CCn1cc(-c2ccccc2)nn1` (stereo not given) came in with an RP-LC retention time of 564 s.

Take `Cn1cc(-c2cc3n(n2)CCC(=O)N3CCCC(=O)NCc2ccco2)c2ccccc21`: the RP-LC retention time amounted to 775 s.

Consider `COc1ccccc1-c1noc(Cn2c(=O)n(Cc3ccc(F)cc3)c(=O)c3sccc32)n1`, for which the RP-LC retention time came out at 1020 s.

As to `CCCCN(C)C(=O)CC1CCN(c2ccnc(NC)n2)CC1`, the RP-LC retention time is 577 s.

Compound `Cc1ccc(C(=O)Nc2c(-c3ccc(F)cc3)nc3ccccn23)cc1[N+](=O)[O-]` showed an RP-LC retention time of 701 s.

Turning to `Cc1[nH]c(C(=O)N2CCC(CC(=O)NCc3ccco3)CC2)c(C)c1C(=O)OC(C)C`, the RP-LC retention time is 765 s.

In turn, `CCCNC(=O)C1CCCN(C(=O)c2[nH]c(C)c(C(=O)OCC)c2C)C1` (stereo not given) registered an RP-LC retention time of 712 s.

Regarding `COc1ccc(-c2cc3n(n2)CCCN(C(=O)C2CCCO2)C3)cc1` (stereo not given), the RP-LC retention time is 700 s.

Regarding `O=C(NCC1CCN(S(=O)(=O)C2CC2)CC1)c1ccccn1`, the RP-LC retention time is 652 s.

In turn, `O=C(NCc1ccc(Cl)cc1)c1ccc2c(c1)nc1n2CCN(Cc2ccccn2)C1=O` showed an RP-LC retention time of 675 s.

For the compound `COCCc1nncn1C1CCN(C(=O)c2cc(F)ccc2F)CC1`, the RP-LC retention time is 618 s.

`Cc1ccccc1CNC(=O)C1CCN(CCc2cn(C)c3ncccc23)CC1` displayed an RP-LC retention time of 608 s.

On to `COc1cc2c(cc1C(=O)NCc1ccc3c(c1)CCCO3)OCCCO2`, for which the RP-LC retention time was 920 s.

Compound `Cc1cc(N2CCN(C(=O)Nc3cccc(C(F)(F)F)c3)CC2)nc(N2CCOCC2)n1` registered an RP-LC retention time of 675 s.

For the compound `Cc1ccccc1-c1noc(C2CCCN2C(=O)NC2CCCCC2)n1` (stereo not given), the RP-LC retention time worked out at 1020 s.

Compound `COc1ccc(S(=O)(=O)N2C[C@@H](F)C[C@H]2C(=O)N2CCOCC2)cc1` gave an RP-LC retention time of 669 s.

Consider `O=C(CCc1cc2ccccc2[nH]c1=O)N1CCN(c2ncccn2)CC1`, for which the RP-LC retention time was 645 s.

`CCN(Cc1ccc(OC)cc1)Cc1cc(=O)n2cccc(C)c2n1`: the RP-LC retention time was determined as 618 s.

Take `CCC(=O)N1CCc2cc(N3CC(C(=O)Nc4ccc(OC)c(F)c4)CC3=O)ccc21` (stereo not given): the RP-LC retention time turned out to be 738 s.

Turning to `Cc1ccc(NC(=O)N2C[C@@H](F)C[C@H]2C(=O)N2CCc3ccccc3C2)cc1Cl`, the RP-LC retention time was found to be 895 s.

For the compound `CCNC(=O)C1CCN(c2nc3ccc(-c4ccccc4)nc3s2)CC1`, the RP-LC retention time was found to be 835 s.

In the case of `CCN(CC)S(=O)(=O)c1ccc2c(c1)CC(C(=O)N1CCC(C)CC1)N2C(C)=O` (stereo not given), the RP-LC retention time amounted to 849 s.

Compound `O=C(Cn1cnc2ccccc2c1=O)N[C@@H](C(=O)O)c1ccc(O)cc1` came in with an RP-LC retention time of 589 s.

`CCCCCn1c(=O)c2ccccc2n(Cc2nc(-c3cc(OC)cc(OC)c3)no2)c1=O` registered an RP-LC retention time of 1270 s.

In the case of `Cc1cccc(CNC(=O)C2(c3ccc(NS(C)(=O)=O)cc3)CCCCC2)c1`, the RP-LC retention time turned out to be 921 s.

Regarding `Cc1cc(=O)n(CC(=O)Nc2cccc(Cl)c2)c(-c2ccccc2)n1`, the RP-LC retention time turned out to be 1080 s.

Compound `CCOC(=O)c1ccccc1NC(=O)Cn1nc2n(c1=O)CCCCC2` yielded an RP-LC retention time of 821 s.

Take `CCNC(=O)C1CCCN(c2nc3ncn(CC(=O)Nc4cc(Cl)ccc4C)c(=O)c3s2)C1` (stereo not given): the RP-LC retention time is 741 s.

The compound `CC(=O)Nc1ccc(S(=O)(=O)N2CCC(CC(=O)N3CCN(c4ccccn4)CC3)CC2)cc1` gave an RP-LC retention time of 581 s.

On to `COCCNC(=O)C1CCN(c2nc3ccc(-c4ccc(OC)cc4)nc3s2)CC1`, for which the RP-LC retention time was 805 s.

Regarding `CCOC(=O)Nc1nc2c(s1)CN(S(=O)(=O)c1c(C)noc1C)CC2`, the RP-LC retention time was determined as 747 s.

Regarding `CC(C)(C)c1noc(-c2ccc(-n3cnc(C(=O)N4CCOCC4)c3)nc2)n1`, the RP-LC retention time was determined as 793 s.

For the compound `Cc1ccc(-c2cn3c(CC(=O)Nc4ccc(Cl)cc4)csc3n2)cc1C`, the RP-LC retention time worked out at 940 s.

Consider `CCCN1C(=O)c2cc(S(=O)(=O)Nc3ccc(F)cc3)ccc2Oc2cccnc21`, for which the RP-LC retention time came out at 1060 s.

Compound `O=C(CC1=C2CCCCC2NC1=O)Nc1ccccc1F` (stereo not given) had an RP-LC retention time of 693 s.
